These results are taken from patent US20260226064A1, “POLYCYCLIC COMPOUND FOR TREATING NEUROLOGICAL DISEASES AND TUMORS” (Shanghai Institute of Organic Chemistry, Chinese Academy of …, priority 2023, published 2026).

The subject of data set [1] is acetylated microtubule in HEK293T cells. Nature of the data set: Microtubule-Stabilizing Activity Assay (acetylated microtubule immunoblot, HEK293T, colchicine challenge). Type of data set: cell-based. The settings on record: 1 h pre-incubation, then colchicine 1 μM 3 h, relative to CNDR-51657 at 500 nM = 1.00; for Microtubule-Stabilizing Activity 50 nM: compound 50 nM; for Microtubule-Stabilizing Activity 500 nM: compound 500 nM. The essentials: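 HEK293T cells pretreated with compound or DMSO 1 h at 37 °C, then challenged with 1 μM colchicine for 3 h. Lysates (RIPA plus 1 μM trichostatin A) immunoblotted for acetylated and α-tubulin, quantified by densitometry. Activity expressed relative to CNDR-51657 at 500 nM set as 1.00.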
For orientation: In western blotting, separated proteins are transferred to a membrane and probed.

A short description of data set [2]: Mouse Oral Pharmacokinetic Study. Type of data set: in vivo. Conditions: mouse, male CD1 mice, oral gavage 10 mg/kg; for Kp at 4 h: brain/plasma, read-out: Cbrain/Cplasma; for AUC(0-t) / Cmax / Tmax: plasma; for AUC(0-t): 0-4 h, read-out: AUC0-4h; for Cmax: read-out: Cmax; for Tmax: read-out: Tmax. On the procedure:
Healthy male CD1 mice were used as experimental animals. The drug was administered by oral gavage at a dose of 10 mg/kg with a dosing volume of 10 mL/kg. Drug preparation: 10 mg of the compound was placed in 10 mL of 50% PEG400 or 20% HPb-cyclodextrin, ground and shaken to ensure uniform distribution of the compound in small particle size, followed by oral administration. Blood samples were collected at 30 min, 1 h, 2 h, and 4 h post-dose, and brain tissues were sampled at 4 h. EDTA dipotassium salt was added to the blood samples, and plasma was obtained after centrifugation. The supernatant was analyzed after dilution with 5 volumes of acetonitrile and centrifugation. The brain tissue homogenate was diluted with 3.5 volumes of acetonitrile, centrifuged, and the supernatant was collected for analysis. The samples were then analyzed by liquid chromatography-tandem mass spectrometry (LC-MS/MS): the instrument was AB Sciex 3500; the mobile phase consisted of 0.1% formic acid in water (A)/0.1% formic acid in acetonitrile (B), with gradient elution.

[3] abbreviates: brain tissue at 4 h, read-out: Cbrain@4h.
Setting [4] is: plasma at 4 h, read-out: Cpasma@4h.

Read-outs that look alike come from different tables or passages of the source.

For orientation: Cmax means the peak of the concentration-time curve. What is called Tmax is the time from dosing to the highest level. For `Cc1nc2ncnn2c(NCC(F)(F)F)c1-c1c(F)cc(OC[C@@H]2[C@H]3CN(C)C[C@@H]23)cc1F` [Example 60], in data set [1], the “Microtubule-Stabilizing Activity 50 nM” value is listed as 0.95 and the “Microtubule-Stabilizing Activity 500 nM” value was 1.24. Besides, in data set [2], the Kp at 4 h stood at 1.32, the AUC(0-t) is 696 ng·h/mL, the Cmax worked out at 379 ng/mL and the Tmax was 30 min. Besides, in data set [2] (setting [3]), the concentration at 4 h amounted to 62 ng/mL. Besides, the concentration at 4 h in data set [2] (setting [4]) came out at 47 ng/mL.

`CC(C)[C@@H](C)Nc1c(-c2c(F)cc(F)cc2F)c(Cl)nc2ncnn12` [Intermediate 4, (R)-5-Chloro-N-(3-methylbutan-2-yl)-6-(2,4,6-trifluorophenyl)-[1,2,4]triazolo[1,5-a]pyrimidin-7-amine, reference compound]: in data set [1], the “Microtubule-Stabilizing Activity 50 nM” value is reported as 0.2-0.3 and the “Microtubule-Stabilizing Activity 500 nM” value is given as 1.00. In addition, in data set [2], the Kp at 4 h came to 0, the AUC(0-t) was 57 ng·h/mL, the Cmax turned out to be 49 ng/mL and the Tmax was 30 min. Moreover, the concentration at 4 h in data set [2] (setting [3]) was 0 ng/mL. For the same molecule, the concentration at 4 h in data set [2] (setting [4]) was 3 ng/mL.
